Test [1] concerns NF-κB p65 in LPS-stimulated RAW264.7 cells. Put plainly: NF-κB nuclear translocation, immunocytochemistry. The class given is cell-based, mouse. The conditions noted are these: pre-treatment 2 h prior to LPS 1 µg/mL for 16 h. The protocol: RAW264.7 cells cultured on round cover slips coated with poly-L-lysine were treated with triterpenoids (1 or 3 µg/mL) 2 h prior to LPS treatment, followed by LPS (1 µg/mL) for 16 h. The cells were washed with 1 x phosphate buffered saline (PBS) and fixed with 4% paraformaldehyde for 30 min. After washing the fixed cells with PBS, the cells were permeabilized with a blocking buffer (1% normal goat serum and 0.2% Triton X-100 in PBS) for 30 min at room temperature, and were incubated with an anti-NF-κB p65 antibody (1:200 dilution, Cell Signaling Technology, Danvers, MA, USA) at 4 °C overnight. After three washes in PBS, the cells were incubated in the dark for 1 h with the mixture of FITC-conjugated anti-rabbit IgG fluorescent secondary antibody diluted at 1:500 in PBS. Finally, the cells were stained with 2 µg/mL Hoechst for nuclei staining. The cells were washed with PBS, wet-mounted on glass slides, and observed using a confocal laser-scanning microscope (Olympus, Tokyo, Japan). The negative control (NC) was analyzed by omitting the primary antibody.

For test [2], the target named is T1, Human neutrophil elastase (HNE, EC 3.4.21.37) (Homo sapiens, UniProt P08246).
T1 construct: purchased Sigma-Aldrich
T1 sequence (P08246 30-267): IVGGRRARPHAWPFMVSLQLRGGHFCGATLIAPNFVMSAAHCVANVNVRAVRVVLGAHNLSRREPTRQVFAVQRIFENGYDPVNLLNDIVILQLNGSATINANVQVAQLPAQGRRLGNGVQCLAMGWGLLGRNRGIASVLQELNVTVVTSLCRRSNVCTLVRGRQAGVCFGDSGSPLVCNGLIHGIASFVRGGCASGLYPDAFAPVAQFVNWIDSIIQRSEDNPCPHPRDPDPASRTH
Put plainly: Human neutrophil elastase inhibition, spectrophotometric, MeOSuc-AAPV-pNA substrate. The class given is biochemical. The method, then:
Human neutrophil elastase (EC 3. 4. 21. 37) (Sigma-Aldrich, St. Louis, MO, USA) activity was measured in accordance with the previous description with subtle modification, by observing the formation of p-nitroaniline after the hydrolysis of N-methoxysuccinyl-Ala-Ala-Pro-Val-p-nitro anilide at 405 nm. The inhibitors were dissolved in dimethyl sulfoxide (DMSO) and diluted to a few concentrations. In brief, in a 96-well plate, 10 µL of inhibitor solution and 40 µL of 1.5 mM of MeOSuc-AAPV-pNA were added as a substrate in the 0.02 mM Tris-HCl buffer solutions (pH 8.0). Then, 20 µL of human neutrophil elastase (0.2 unit/mL) was added to the mixture. The test mixtures were incubated and mixed for 15 min at room temperature and then screened at 405 nm for 30 min every 30 s.
Activity (%) = 100 [1/(1 + ([I]/IC50))].(1)
The modalities of HNE inhibition were estimated in experiments using particular concentrations of the substrates and inhibitors, respectively. The Michaelis–Menten constant (Km) and maximal velocity (Vmax) were investigated by a Lineweaver–Burk plot. The KI, dissociation constants for inhibitor binding to the free enzyme were calculated using a Dixon plot. Equations (2)–(4) are representatives for deriving the aforementioned parameters. (2) 1/V=Km/Vmax(1+[I]/Ki)×1/S+1/Vmax (3) Slop=Km/KiVmax[I]+Km/Vmax (4) Intercept=1/KiVmax[I]+1/Vmax.

The target in test [3] is T2, Human neutrophil elastase (HNE) (Homo sapiens, UniProt P08246).
T2 construct: purchased Sigma-Aldrich
T2 sequence (P08246 30-267): T1 sequence (P08246 30-267)
The test can be described thus: Fluorescence quenching binding affinity to HNE. The conditions noted are these: inhibitor 7.8–31.2 µM. The protocol: To measure fluorescence from the HNE enzyme, 10 μL of 0.01 unit/mL enzyme solution with 180 μL of Tris-HCl buffer (0.02 mM) was accurately added into the 96-well black immunoplates. Then, 10 μL of incremental concentrations (7.8–31.2 μΜ) of inhibitors were added into each well. All fluorescence spectra were measured from 280 to 400 nm with emission slits regulated to 2.0 nm, and the excitation wavelength was 260 nm. The Stern–Volmer quenching constant (KSV) was calculated using Equation (5). All experiments were conducted in triplicate, and the mean values were calculated. (5) […]=1+KSV[Q], where F0 and F are the fluorescence intensities in the absence and presence of quencher (Q). KSV is the Stern–Volmer quenching constant [LM^−1]. For static quenching, the correlation between the fluorescence intensity and the concentration of quencher for the series of reactions can be estimated by Equation (6). (6) log[(F0−F)/F]=logKA+nlog[Q]f.
F0 and F are the fluorescence intensities in the absence and presence of inhibitor; KA is the binding constant; n is the number of binding sites of the enzyme; Qf is the concentration of inhibitor.

SMILES strings stand for the structures.

The term Ki denotes the equilibrium dissociation constant of an inhibitor or competing ligand from its target. One may read the IC50 as the concentration needed to halve the response being measured. Low values mean greater potency, high ones weaker potency.

As for `CC(C)(C)c1ccc(S(=O)(=O)/C=C/C#N)cc1` [Bay 11-7085, reference compound], the “NF-κB translocation to the nucleus (immunocytochemical staining)” value in test [1] was “suppressed”.

As to `COC1OC(C=C(C)C=CC=C(C)CCC=C(C)C)CC12C(CCCO)C(=C(C)C=O)CCC2(C)O` (centres unmarked) [Compound 3, iridobelamal B], the Ki in test [2] (Dixon plots, read-out: Ki (inhibition constant)) is 6.2 µM. For the same compound, the “Type of Inhibition” value in test [2] (Lineweaver-Burk and Dixon plots, reversibility from activity vs enzyme concentration plots) is “noncompetitive inhibitor”. The “fold better HNE inhibition than monocyclic compounds (1 and 2)” value in test [2] (compared with compounds 1 and 2) is recorded as 2–3 fold. Inhibition in test [2] (concentration that caused 50% enzyme activity loss, three sets of experiments) was half-maximal at 6.8 ± 0.3 µM (IC50). Also, the “n (number of binding sites of the enzyme)” value in test [3] is listed as 0.9727. In addition, the Kd in test [3] (read-out: KA (association constant of the complex of enzyme and quencher) (converted)) was 13.5 µM. In addition, the “KSV (Stern-Volmer quenching constant)” value in test [3] (λEx 260 nm, λEm 280–400 nm) worked out at 67640 L/mol.

The record behind these values is publication PMC8588536, “Iridal-Type Triterpenoids Displaying Human Neutrophil Elastase Inhibition and Anti-Inflammatory Effects from Belamcanda chinensis” (Molecules, 2021).
